# Test results: patent US11707503B2, “Modulators of complement activity” (Ra Pharmaceuticals, Inc., priority 2015, dated 2023)
# “Also recorded” adds a separate entry of the source. Starred links: 1 amine or outer side, 2 acyl side, 3 side chain; linkers in the order of their positions; H or OH if unused. Positions of bridges follow the written chain, without caps; N, C: chain ends. Non-standard residues stand in square brackets, D forms with d. Residues, ends and D or L forms follow the SMILES beside them. Trp(7-aza) = N[C@@H](Cc1c[nH]c2ncccc12)C(=O)O; Tiq1c(1S) = O=C(O)[C@H]1NCCc2ccccc21; mXylylene = c1cc(C[*:1])cc(C[*:2])c1; pXylylene = c1cc(C[*:2])ccc1C[*:1]; Phg = N[C@H](C(=O)O)c1ccccc1; Tle = CC(C)(C)[C@H](N)C(=O)O; NMeS = CN[C@@H](CO)C(=O)O; hCys = N[C@@H](CCS)C(=O)O; Nva = CCC[C@H](N)C(=O)O
# Biological target: T1, C5 (Homo sapiens, UniProt P01031)
# Test: Competitive fluorescence polarization (FP) binding assay with probe R3076
# Parameters: purchased Complement Technology, Tyler, Tex
# Settings: not given
# Protocol: FP was used for screening competitive polypeptide inhibitors of the C5 protein. […] The BODIPY-TMR dye attached to the C-terminal lysine of the protein and the subsequent labeled probe was purified by HPLC.
# Human C5 protein was diluted to 200 nM in assay buffer, composed of TBS (EMD Millipore, Billerica, Mass.)+0.005% Triton-X (Sigma, Saint Louis, Mo.). 10 μl of assay buffer was added to all wells of a black, non-binding, 384-well assay plate (Greiner, Monroe, N.C.) and 10 μl of diluted C5 protein stock was added to experimental and designated control wells.
# Probe R3076 (SEQ ID NO: 40) was diluted 1 to 10 in DMSO (Life Technologies, Grand Island, N.Y.) and 30 μl of that stock was diluted in 3 ml of assay buffer to yield a 100 nM stock. 10 μl of this working stock was then added to each well in the assay plate. The assay plate was incubated at room temperature, protected from light, for 20 minutes to allow binding to reach equilibrium.
# Test articles listed in Table 7 were subsequently diluted in DMSO then assay buffer, comprising 10 2-fold dilutions and were then added to the assay plate in triplicate, rapidly. The assay plate was then incubated in the Paradigm (Molecular Devices, Sunnyvale, Calif.) plate reader for 60 minutes at 25° C.
# After incubation for 60 minutes, the plate was read using the Paradigm FP protocol (Molecular Devices, Sunnyvale, Calif.) and raw polarization values were imported into Graphpad Prism.
# T1 sequence (P01031 678-1676 limits assumed): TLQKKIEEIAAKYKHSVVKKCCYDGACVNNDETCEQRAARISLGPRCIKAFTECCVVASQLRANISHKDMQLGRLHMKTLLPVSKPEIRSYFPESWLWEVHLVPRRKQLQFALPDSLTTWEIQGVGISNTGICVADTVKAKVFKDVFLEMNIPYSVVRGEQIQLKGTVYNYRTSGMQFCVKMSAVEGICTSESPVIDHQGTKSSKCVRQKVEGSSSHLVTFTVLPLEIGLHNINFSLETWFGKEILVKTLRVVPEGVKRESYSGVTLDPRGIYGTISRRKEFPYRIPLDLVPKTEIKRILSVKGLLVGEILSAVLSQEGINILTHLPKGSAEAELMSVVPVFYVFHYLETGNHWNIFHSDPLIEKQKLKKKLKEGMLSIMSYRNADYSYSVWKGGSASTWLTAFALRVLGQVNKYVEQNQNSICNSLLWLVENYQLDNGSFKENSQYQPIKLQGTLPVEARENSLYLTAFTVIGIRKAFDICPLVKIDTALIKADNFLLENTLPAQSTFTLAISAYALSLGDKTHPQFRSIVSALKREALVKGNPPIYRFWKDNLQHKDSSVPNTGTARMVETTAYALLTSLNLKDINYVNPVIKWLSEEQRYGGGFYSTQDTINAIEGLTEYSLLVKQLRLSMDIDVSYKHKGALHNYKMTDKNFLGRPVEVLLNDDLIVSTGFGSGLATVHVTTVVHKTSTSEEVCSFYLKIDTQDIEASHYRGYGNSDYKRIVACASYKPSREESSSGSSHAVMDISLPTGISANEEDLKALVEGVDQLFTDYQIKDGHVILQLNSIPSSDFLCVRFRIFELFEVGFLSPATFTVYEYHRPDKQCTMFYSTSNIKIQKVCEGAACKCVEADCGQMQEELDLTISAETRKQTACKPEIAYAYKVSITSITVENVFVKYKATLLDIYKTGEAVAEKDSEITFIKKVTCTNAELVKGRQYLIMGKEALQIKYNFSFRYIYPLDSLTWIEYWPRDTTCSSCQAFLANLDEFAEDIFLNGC
# T1 sequence (P01031 19-673 limits assumed): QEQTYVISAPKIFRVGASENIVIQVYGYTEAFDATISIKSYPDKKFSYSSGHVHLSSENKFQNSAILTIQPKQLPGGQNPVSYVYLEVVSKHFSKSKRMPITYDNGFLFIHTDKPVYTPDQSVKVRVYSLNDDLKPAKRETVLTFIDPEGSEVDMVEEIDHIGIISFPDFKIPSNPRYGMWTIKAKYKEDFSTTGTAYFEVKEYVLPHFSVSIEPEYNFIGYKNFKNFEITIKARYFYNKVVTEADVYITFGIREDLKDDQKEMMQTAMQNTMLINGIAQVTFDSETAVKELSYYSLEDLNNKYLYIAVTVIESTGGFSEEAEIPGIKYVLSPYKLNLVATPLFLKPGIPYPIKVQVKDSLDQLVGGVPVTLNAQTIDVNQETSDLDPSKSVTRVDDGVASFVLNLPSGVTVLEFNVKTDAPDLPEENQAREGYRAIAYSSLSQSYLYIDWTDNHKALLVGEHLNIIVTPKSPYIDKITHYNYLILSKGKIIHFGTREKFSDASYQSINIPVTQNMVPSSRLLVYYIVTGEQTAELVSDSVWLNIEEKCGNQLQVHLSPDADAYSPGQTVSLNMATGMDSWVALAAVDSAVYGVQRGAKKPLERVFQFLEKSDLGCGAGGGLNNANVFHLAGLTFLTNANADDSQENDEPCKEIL
row,competition for / affinity for C5 in words,SMILES
1,most potent,"CCC[C@H](NC(C)=O)C(=O)N[C@@H](CS)C(=O)N[C@@H](Cc1ccc(O)cc1)C(=O)N[C@@H](CCC(=O)O)C(=O)N[C@@H](CC(N)=O)C(=O)N[C@H](C(=O)N[C@@H](Cc1ccc(O)cc1)C(=O)N[C@@H](Cc1c[nH]c2ncccc12)C(=O)N[C@@H](CCC(=O)O)C(=O)N[C@@H](Cc1ccc(O)cc1)C(=O)N1CCC[C@H]1C(=O)N[C@H](C(=O)N1CCC[C@H]1C(N)=O)c1ccccc1)C(C)(C)C [Compound R3003, Ac-Nvl-C-Y-E-N-Tbg-Y-azaTrp-E-Y-P-Phg-P-NH2] (Ac-[Nva]CYEN[Tle]Y[Trp(7-aza)]EYP[Phg]P-NH2)"
2,relatively strong affinity,"CCC[C@H](NC(C)=O)C(=O)N[C@H]1CSCc2cccc(c2)CSC[C@@H](C(=O)N[C@@H](CCC)C(=O)N2CCC[C@H]2C(N)=O)NC(=O)[C@H](Cc2c[nH]cn2)NC(=O)[C@H](CO)N(C)C(=O)[C@H](Cc2ccc(O)cc2)NC(=O)[C@H](CCC(=O)O)NC(=O)[C@H](Cc2c[nH]c3ncccc23)NC(=O)[C@H]([C@@H](C)O)NC(=O)[C@H](c2ccccc2)NC1=O [Compound R3011, [mXylyl(2,10)]Ac-Nvl-C-Phg-T-azaTrp-E-Y-(N—Me)S-H-C-Nvl-P-NH2] (Ac-[Nva]C[Phg]T[Trp(7-aza)]EY[NMeS]HC[Nva]P-NH2; linker 2-10 via mXylylene)"
3,weak affinity,"CCC[C@H](NC(=O)[C@@H]1CCCN1C(=O)[C@H](CCC)NC(=O)[C@@H]1CSCc2cccc(c2)CSC[C@H](NC(C)=O)C(=O)N[C@@H](c2ccccc2)C(=O)N[C@@H]([C@@H](C)O)C(=O)N[C@@H](Cc2c[nH]c3ncccc23)C(=O)N[C@@H](CCC(=O)O)C(=O)N[C@@H](Cc2ccc(O)cc2)C(=O)N(C)[C@@H](CO)C(=O)N[C@@H](Cc2c[nH]cn2)C(=O)N1)C(N)=O [Compound R3014, [mXylyl(1,9)]Ac-C-Phg-T-azaTrp-E-Y-(N—Me)S-H-C-Nvl-P-Nvl-NH2] (Ac-C[Phg]T[Trp(7-aza)]EY[NMeS]HC[Nva]P[Nva]-NH2; linker 1-9 via mXylylene)"
4,weak affinity,"CSCC[C@H](N)C(=O)N[C@H]1CSCc2cccc(c2)CSC[C@@H](C(=O)N[C@@H](CC(=O)O)C(=O)N[C@H](C(=O)N[C@@H](Cc2ccc(O)cc2)C(=O)N[C@@H](Cc2c[nH]c3ccccc23)C(=O)N[C@@H](CCC(=O)O)C(N)=O)C(C)C)NC(=O)[C@H](Cc2ccccc2)NC(=O)[C@H](CCCNC(=N)N)NC(=O)[C@H](CCC(=O)O)NC(=O)[C@H](C(C)C)NC1=O [Compound R3043, [mXylyl(2,7)]M-C-V-E-R-F-C-D-V-Y-W-E-NH2] (H-MCVERFCDVYWE-NH2; linker 2-7 via mXylylene)"

row,SMILES,competition for / affinity for C5 in words
1,"CCC[C@H](NC(=O)[C@H](Cc1ccc(O)cc1)NC(=O)[C@H](CC(N)=O)NC(=O)[C@H](CCC)NC(=O)[C@H](CCC(=O)O)NC(=O)[C@@H](NC(=O)[C@H](Cc1c[nH]c2ncccc12)NC(=O)[C@@H](NC(=O)[C@H](CS)NC(=O)[C@H](Cc1ccc(O)cc1)NC(=O)[C@@H]1CCCN1C(=O)[C@H](Cc1ccc(O)cc1)NC(C)=O)c1ccccc1)C(C)(C)C)C(=O)N[C@@H](CCC(=O)O)C(N)=O [Compound R3023, Ac-Y-P-Y-C-Phg-azaTrp-Tbg-E-Nvl-N-Y-Nvl-E-NH2] (Ac-YPYC[Phg][Trp(7-aza)][Tle]E[Nva]NY[Nva]E-NH2)",no activity at the highest concentration tested; also recorded: not detected at the highest concentration tested; also recorded: no affinity

# Biological target: T1, C5
# Test: Human hemolysis assay (RBC lysis assay using complete human sera)
# Assay type: cell-based
# Parameters: with complete human sera (Complement Technology, Tyler Tex.) and polypeptides; tissue Complement Technology, Tyler Tex; host or cells: complete human serum
# Settings: antibody-sensitized sheep erythrocytes, complete human sera
# Protocol: Polypeptides listed in Table 3, as well as their optimized derivatives (see Table 4) were assessed for inhibitor activity using a red blood cell hemolysis assay. […] Human sera was rapidly thawed at 37° C. and then stored on ice until diluted into GVB++. Ten 6-fold serial dilutions of polypeptides (10 mM stock, DMSO) were performed in DMSO and then added to buffer. 50 μl of each polypeptide dilution was combined with sera and 100 μl of cells in individual wells of a 96-well tissue culture-treated clear microtitre plate (USA Scientific, Ocala, Fla.) and resuspended by pipetting. Samples were incubated at 37° C. for one hour. […] Data was fit with a log-logit formula producing a dose-response curve and IC50. As used herein, the term “IC50” refers to the half maximal inhibitory concentration, a value used to indicate the amount of the inhibitor needed to reduce a given reaction or process by half.
# The human constant light chain kappa and IgG2 constant heavy chain sequences were used for the constants regions of the antibody. This antibody was expressed from human embryonic kidney cells (HEK293) and purified by Protein A affinity chromatography. […] Human sera was rapidly thawed at 37° C. and then stored on ice until diluted into GVB++. Ten 6-fold serial dilutions of each compound (10 mM stock, DMSO) were performed in DMSO and then added to buffer. 50 μl of each compound dilution was combined with sera and 100 μl of cells in individual wells of a 96-well tissue culture-treated clear microtitre plate (USA Scientific, Ocala, Fla.) and resuspended by pipetting. Samples were incubated at 37° C. for one hour. […] Data was fit with a log-logit formula producing a dose-response curve and IC50 (see FIG. 11A).
row,SMILES,IC50 [µM]
1,"CC(=O)N[C@H]1CSCc2cccc(c2)CSC[C@@H](C(N)=O)NC(=O)[C@H](Cc2c[nH]cn2)NC(=O)[C@H](CO)N(C)C(=O)[C@H](Cc2ccc(O)cc2)NC(=O)[C@H](CCC(=O)O)NC(=O)[C@H](Cc2c[nH]c3ncccc23)NC(=O)[C@H]([C@@H](C)O)NC(=O)[C@H](c2ccccc2)NC1=O [Compound R3015, [mXylyl(1,9)]Ac-C-Phg-T-azaTrp-E-Y-(N—Me)S-H-C-NH2] (Ac-C[Phg]T[Trp(7-aza)]EY[NMeS]HC-NH2; linker 1-9 via mXylylene)",> 3.96
2,"CCC[C@H](NC(=O)[C@@H]1CCSCc2ccc(cc2)CSCC[C@H](NC(=O)[C@H](CCC)NC(C)=O)C(=O)N[C@@H](c2ccccc2)C(=O)N[C@@H]([C@@H](C)O)C(=O)N[C@@H](Cc2c[nH]c3ncccc23)C(=O)N[C@@H](CCC(=O)O)C(=O)N[C@@H](Cc2ccc(O)cc2)C(=O)N(C)[C@@H](CO)C(=O)N[C@@H](Cc2c[nH]cn2)C(=O)N1)C(N)=O [Compound R3108, [pXylyl(2,10)]Ac-Nvl-homoC-Phg-T-azaTrp-E-Y-(N—Me)S-H-homoC-Nvl-NH2] (Ac-[Nva][hCys][Phg]T[Trp(7-aza)]EY[NMeS]H[hCys][Nva]-NH2; linker 2-10 via pXylylene)",> 75
3,"CCC[C@H](NC(=O)[C@@H]1CSCc2cccc(c2)CSC[C@H](NC(=O)[C@H](CCC)NC(C)=O)C(=O)N2CCc3ccccc3[C@H]2C(=O)N[C@@H]([C@@H](C)O)C(=O)N[C@@H](Cc2c[nH]c3ncccc23)C(=O)N[C@@H](CCC(=O)O)C(=O)N[C@@H](Cc2ccc(O)cc2)C(=O)N(C)[C@@H](CO)C(=O)N[C@@H](Cc2c[nH]cn2)C(=O)N1)C(N)=O [Compound R3122, [mXylyl(2,10)]Ac-Nvl-C-Tiq-T-azaTrp-E-Y-(N—Me)S-H-C-Nvl-NH2] (Ac-[Nva]C[Tiq1c(1S)]T[Trp(7-aza)]EY[NMeS]HC[Nva]-NH2; linker 2-10 via mXylylene)",> 50
4,"CCC[C@H](NC(=O)[C@@H](NC(=O)[C@@H]1CCCN1C(=O)[C@H](Cc1ccc(O)cc1)NC(=O)[C@H](CCC(=O)O)NC(=O)[C@H](Cc1c[nH]c2ncccc12)NC(=O)[C@H](Cc1ccc(O)cc1)NC(=O)[C@@H](NC(=O)[C@H](CC(=O)O)NC(=O)[C@@H]1CSCc2cccc(c2)CSC[C@H](NC(C)=O)C(=O)N[C@@H](C(C)C)C(=O)N[C@@H](C)C(=O)N[C@@H](CCCNC(=N)N)C(=O)N[C@@H](Cc2ccccc2)C(=O)N1)C(C)(C)C)c1ccccc1)C(N)=O [Compound R3150, [mXylyl(1,6)]Ac-C-V-A-R-F-C-D-Tbg-Y-azaTrp-E-Y-P-Phg-Nvl-NH2] (Ac-CVARFCD[Tle]Y[Trp(7-aza)]EYP[Phg][Nva]-NH2; linker 1-6 via mXylylene)",0.032

# Same assay, conditions: relative to parent polypeptide
row,SMILES,change in ability to inhibit red blood cell lysis in words
1,"CC(=O)N[C@H]1CSCc2cccc(c2)CSC[C@@H](C(=O)N[C@@H](CC(=O)O)C(=O)N[C@H](C(=O)N[C@@H](Cc2ccc(O)cc2)C(=O)N[C@@H](Cc2c[nH]c3ccccc23)C(=O)N[C@@H](CCC(=O)O)C(=O)N[C@@H](Cc2ccccc2)C(N)=O)C(C)C)NC(=O)[C@H](Cc2ccccc2)NC(=O)[C@H](CCCNC(=N)N)NC(=O)[C@H](CCC(=O)O)NC(=O)[C@H](C(C)C)NC1=O [Compound R3048, [mXylyl(1,6)]Ac-C-V-E-R-F-C-D-V-Y-W-E-F-NH2] (Ac-CVERFCDVYWEF-NH2; linker 1-6 via mXylylene)",increased the ability
2,"CC(=O)N[C@H]1CSCc2cccc(c2)CSC[C@@H](C(=O)N[C@H](C(=O)N[C@@H](Cc2ccc(O)cc2)C(=O)N[C@@H](Cc2c[nH]c3ccccc23)C(=O)N[C@@H](CCC(=O)O)C(=O)N[C@@H](Cc2ccccc2)C(N)=O)C(C)C)NC(=O)[C@H](Cc2ccccc2)NC(=O)[C@H](CCCNC(=N)N)NC(=O)[C@H](CCC(=O)O)NC(=O)[C@H](C(C)C)NC1=O [Compound R3124, [mXylyl(1,6)]Ac-C-V-E-R-F-C-V-Y-W-E-F-NH2] (Ac-CVERFCVYWEF-NH2; linker 1-6 via mXylylene)",decrease in the ability
3,"CC(=O)N[C@H]1CSCc2cccc(c2)CSC[C@@H](C(=O)N[C@@H](Cc2c[nH]c3ccccc23)C(=O)N[C@@H](CCC(=O)O)C(=O)N[C@@H](Cc2ccccc2)C(N)=O)NC(=O)[C@H](Cc2ccccc2)NC(=O)[C@H](CCCNC(=N)N)NC(=O)[C@H](CCC(=O)O)NC(=O)[C@H](C(C)C)NC1=O [Compound R3125, [mXylyl(1,6)]Ac-C-V-E-R-F-C-W-E-F-NH2] (Ac-CVERFCWEF-NH2; linker 1-6 via mXylylene)",decrease in the ability
